Patent US20250101023A1, “HETEROARYL DERIVATIVE AND USES THEREOF” (IUCF-HYU (INDUSTRY-UNIVERSITY COOPERATION FOUNDATION …, priority 2022, published 2025)
Where two headings read alike, the source gives them in different places.

Key:
HCC1954 cells = test: Breast cancer growth inhibitory activity (Cell-titer Glo, 72 h); format: cell-based; conditions: Homo sapiens
Description: (§1) Breast cancer cells in a culture solution (100 μL volume/well, 2,500 SK-Br3 cells/well, 1,000 HCC-1954 cells/well) were seeded into a tissue culture-treated 96-well plate and cultured in a cell incubator for 24 hours. […] Cell-titer Glo™ reagent (50 μL of a 5-fold diluted solution, Promega) was added to each well, and luminescence signals were measured using an Envision™ plate reader (PerkinElmer, USA). Titration curve fitting and IC50 values were generated using Prism 7.0 s/w (GraphPad, San Diego, USA).

SK-Br3 cells = test: as above; format: cell-based; conditions: Homo sapiens, SK-BR-3
Description: as §1

[1] = Body weight in SK-Br3 xenograft model; format: in vivo, mouse; conditions: 20 mg/kg, i.p. twice a week
Description: A mouse efficacy experiment was conducted after obtaining approval from the Laboratory Animal Ethics Committee of GenNBio (Review No.: GN-IACUC-Research 22-02-07). SK-Br3 and HCC-1954 cells (1×10^6 cells each) mixed with Matrigel (BD Biosciences) were […] injected into 5-week-old female Balb/c nude mice (Orient Bio, Seongnam, Republic of Korea). After tumors reached a size of about 100 mm^3, the compound, trastuzumab (20 mg/kg), and the like were intraperitoneally injected into mice (n=8 per group)(vehicle: 8% DMSO, 4% Tween-80, 88% PBS). The tumor size was measured twice weekly for about 4 weeks and calculated as follows. Volume (mm^3)=(a×b^2)/2; “a”, maximum diameter; “b”, vertical diameter

CDK12/CyclinK = CDK12/CyclinK (Homo sapiens (Human), UniProt Q9NYV4); test: CDK12/cyclinK enzyme activity; format: biochemical; conditions: in vitro
[2] = Liver microsomal metabolic stability; format: in vitro ADME; conditions: for Liver microsomal metabolic stability (% remaining amount) Dog: dog liver microsomes; for Liver microsomal metabolic stability (% remaining amount) Human: human liver microsomes; for Liver microsomal metabolic stability (% remaining amount) Mouse: mouse liver microsomes
Description: (§2) 5 derivatives were evaluated for in vitro metabolic stability in liver microsomes from three different species (human, dog, mouse) and for inhibitory activity against 5 representative cytochrome P450 enzymes (CYPs)(Table 3). In terms of liver microsomal stability, the 2′-pyridyl group is more suitable than the α-methyl-4′-pyridyl group as the terminal aromatic group at position 6, and the aminopyrimidyl group is better than the aminopyridyl group as a substituent at position 2.

CYP1A2 = CYP1A2 (Homo sapiens (Human), UniProt P05177); test: in vitro; format: in vitro ADME
Description: as §2

CYP2C19 = CYP2C19 (Homo sapiens (Human), UniProt P33261); test: CYP inhibitory activity; format: in vitro ADME; conditions: read-out: CYP % activity at 10 μM concentration 2C19
Description: as §2

CYP2C9 = CYP2C9 (Homo sapiens (Human), UniProt P11712); test: CYP inhibitory activity; format: in vitro ADME; conditions: read-out: CYP % activity at 10 μM concentration 2C9
Description: as §2

CYP2D6 = CYP2D6 (Homo sapiens (Human), UniProt P10635); test: CYP inhibitory activity; format: in vitro ADME; conditions: read-out: CYP % activity at 10 μM concentration 2D6
Description: as §2

CYP3A4 = CYP3A4 (Homo sapiens (Human), UniProt P08684); test: CYP inhibitory activity; format: in vitro ADME; conditions: read-out: CYP % activity at 10 μM concentration 3A4
Description: as §2

[3] = tested on: Pol II CTD (Ser2) phosphorylation; test: Western blot, Pol II CTD Ser2 phosphorylation; format: cell-based; conditions: SK-Br3 and HCC1954 cell lines, 40 and 200 nM, 2 hours
cyclinK = test: Western blot, cyclinK degradation; format: cell-based; conditions: SK-Br3 and HCC1954 cell lines, 40 and 200 nM, 2 hours
IRS1 and WNT1 = test: Western blot, CDK12 downstream gene expression; format: cell-based; conditions: SK-Br3 and HCC1954 cell lines, 40 and 200 nM, 24 hours
[4] = 72 hours, read-out: SK-Br3 (GI50/μM)

Sequence of CYP1A2 (P05177 whole entry): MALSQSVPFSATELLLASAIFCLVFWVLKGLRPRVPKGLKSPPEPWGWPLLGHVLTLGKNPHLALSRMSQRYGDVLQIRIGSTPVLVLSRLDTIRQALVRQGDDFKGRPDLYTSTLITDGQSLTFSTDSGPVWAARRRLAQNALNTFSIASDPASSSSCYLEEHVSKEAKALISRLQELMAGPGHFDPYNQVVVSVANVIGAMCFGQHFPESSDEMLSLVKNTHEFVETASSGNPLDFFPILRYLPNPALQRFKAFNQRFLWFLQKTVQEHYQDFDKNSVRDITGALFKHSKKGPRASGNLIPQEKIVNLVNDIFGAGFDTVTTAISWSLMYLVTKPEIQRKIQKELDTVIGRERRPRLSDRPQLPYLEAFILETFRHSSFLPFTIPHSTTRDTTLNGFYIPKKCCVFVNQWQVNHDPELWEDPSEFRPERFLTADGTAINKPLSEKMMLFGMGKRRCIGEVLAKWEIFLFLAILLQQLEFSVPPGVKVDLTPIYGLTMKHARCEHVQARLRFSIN
Sequence of CDK12/CyclinK (Q9NYV4 whole entry): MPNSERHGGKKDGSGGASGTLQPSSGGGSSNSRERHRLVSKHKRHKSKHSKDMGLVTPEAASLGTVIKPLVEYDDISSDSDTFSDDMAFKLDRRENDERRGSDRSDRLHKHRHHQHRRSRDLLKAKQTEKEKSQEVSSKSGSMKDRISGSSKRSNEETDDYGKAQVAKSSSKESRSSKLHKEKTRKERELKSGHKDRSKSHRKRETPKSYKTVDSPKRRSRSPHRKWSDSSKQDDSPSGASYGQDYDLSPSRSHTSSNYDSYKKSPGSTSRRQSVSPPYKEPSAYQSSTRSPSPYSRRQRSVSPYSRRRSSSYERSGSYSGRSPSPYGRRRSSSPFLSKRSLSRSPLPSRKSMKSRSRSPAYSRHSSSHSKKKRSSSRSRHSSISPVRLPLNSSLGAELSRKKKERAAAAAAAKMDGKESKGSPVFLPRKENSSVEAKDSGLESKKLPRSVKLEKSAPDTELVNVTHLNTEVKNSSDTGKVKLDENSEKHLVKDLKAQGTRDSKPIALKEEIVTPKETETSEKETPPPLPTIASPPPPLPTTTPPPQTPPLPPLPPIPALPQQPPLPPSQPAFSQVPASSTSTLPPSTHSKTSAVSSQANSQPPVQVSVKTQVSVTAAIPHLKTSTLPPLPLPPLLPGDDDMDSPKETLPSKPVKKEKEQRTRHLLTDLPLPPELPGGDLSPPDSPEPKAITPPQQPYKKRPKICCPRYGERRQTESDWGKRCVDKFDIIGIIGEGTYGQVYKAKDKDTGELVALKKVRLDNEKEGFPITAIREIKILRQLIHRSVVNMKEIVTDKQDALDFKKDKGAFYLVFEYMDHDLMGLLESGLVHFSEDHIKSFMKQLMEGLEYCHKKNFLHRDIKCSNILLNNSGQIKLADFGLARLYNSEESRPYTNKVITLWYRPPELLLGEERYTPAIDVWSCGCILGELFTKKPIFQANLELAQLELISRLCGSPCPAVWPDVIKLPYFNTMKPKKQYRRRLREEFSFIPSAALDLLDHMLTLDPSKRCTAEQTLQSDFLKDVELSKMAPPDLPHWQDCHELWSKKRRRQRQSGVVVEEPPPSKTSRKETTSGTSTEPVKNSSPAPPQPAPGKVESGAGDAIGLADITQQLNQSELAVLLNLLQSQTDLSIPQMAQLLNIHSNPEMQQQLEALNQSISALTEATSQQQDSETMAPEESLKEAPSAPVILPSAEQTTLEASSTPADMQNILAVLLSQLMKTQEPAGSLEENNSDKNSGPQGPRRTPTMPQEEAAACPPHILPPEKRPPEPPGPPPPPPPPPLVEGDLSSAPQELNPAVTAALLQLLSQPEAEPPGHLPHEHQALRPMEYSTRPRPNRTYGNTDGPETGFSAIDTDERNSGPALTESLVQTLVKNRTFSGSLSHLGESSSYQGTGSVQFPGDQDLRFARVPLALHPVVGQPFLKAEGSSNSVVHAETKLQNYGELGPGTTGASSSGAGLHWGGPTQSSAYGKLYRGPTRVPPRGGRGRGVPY
Sequence of CDK12/CyclinK (O75909 whole entry partner): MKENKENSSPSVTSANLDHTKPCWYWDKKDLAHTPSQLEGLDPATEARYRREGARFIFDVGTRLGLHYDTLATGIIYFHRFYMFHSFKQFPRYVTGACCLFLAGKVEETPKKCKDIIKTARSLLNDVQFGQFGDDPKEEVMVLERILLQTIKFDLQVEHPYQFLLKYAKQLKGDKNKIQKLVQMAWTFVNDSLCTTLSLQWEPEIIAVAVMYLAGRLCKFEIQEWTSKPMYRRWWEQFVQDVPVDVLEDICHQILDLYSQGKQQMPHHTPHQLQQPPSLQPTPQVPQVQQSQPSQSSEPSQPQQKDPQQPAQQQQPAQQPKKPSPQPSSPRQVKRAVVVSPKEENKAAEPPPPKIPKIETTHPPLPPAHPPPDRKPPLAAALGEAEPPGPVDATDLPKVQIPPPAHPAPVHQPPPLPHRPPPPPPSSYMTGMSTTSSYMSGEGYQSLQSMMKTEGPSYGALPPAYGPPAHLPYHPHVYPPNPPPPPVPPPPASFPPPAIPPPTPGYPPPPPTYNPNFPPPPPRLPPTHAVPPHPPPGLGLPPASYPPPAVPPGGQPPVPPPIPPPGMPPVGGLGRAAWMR
Sequence of CYP3A4 (P08684 whole entry): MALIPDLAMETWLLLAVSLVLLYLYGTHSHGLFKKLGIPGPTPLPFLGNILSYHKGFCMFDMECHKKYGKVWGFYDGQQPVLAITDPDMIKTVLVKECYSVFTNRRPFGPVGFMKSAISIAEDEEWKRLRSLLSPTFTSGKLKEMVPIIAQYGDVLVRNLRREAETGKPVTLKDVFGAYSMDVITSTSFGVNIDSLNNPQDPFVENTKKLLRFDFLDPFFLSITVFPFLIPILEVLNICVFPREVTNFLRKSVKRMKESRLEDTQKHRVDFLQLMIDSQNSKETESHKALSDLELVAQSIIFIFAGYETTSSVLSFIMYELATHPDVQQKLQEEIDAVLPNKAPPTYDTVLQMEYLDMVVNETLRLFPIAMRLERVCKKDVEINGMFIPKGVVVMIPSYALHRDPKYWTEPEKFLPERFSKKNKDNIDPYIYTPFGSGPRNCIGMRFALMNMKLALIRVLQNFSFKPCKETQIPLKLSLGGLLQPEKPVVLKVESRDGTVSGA
Sequence of CYP2D6 (P10635 whole entry): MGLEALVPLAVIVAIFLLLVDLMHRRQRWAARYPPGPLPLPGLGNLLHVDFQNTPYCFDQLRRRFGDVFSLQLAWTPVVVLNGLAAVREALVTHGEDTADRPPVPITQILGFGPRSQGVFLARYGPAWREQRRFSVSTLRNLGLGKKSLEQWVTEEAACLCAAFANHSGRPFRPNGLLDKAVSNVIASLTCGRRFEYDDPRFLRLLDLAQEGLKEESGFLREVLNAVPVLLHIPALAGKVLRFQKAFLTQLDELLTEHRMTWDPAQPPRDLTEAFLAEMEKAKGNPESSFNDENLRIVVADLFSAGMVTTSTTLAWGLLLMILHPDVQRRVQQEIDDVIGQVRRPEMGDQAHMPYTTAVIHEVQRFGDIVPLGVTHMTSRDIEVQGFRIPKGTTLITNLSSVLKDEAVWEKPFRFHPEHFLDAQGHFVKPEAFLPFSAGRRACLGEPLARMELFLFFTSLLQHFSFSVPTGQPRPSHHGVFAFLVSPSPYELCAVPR
Sequence of CYP2C19 (P33261 whole entry): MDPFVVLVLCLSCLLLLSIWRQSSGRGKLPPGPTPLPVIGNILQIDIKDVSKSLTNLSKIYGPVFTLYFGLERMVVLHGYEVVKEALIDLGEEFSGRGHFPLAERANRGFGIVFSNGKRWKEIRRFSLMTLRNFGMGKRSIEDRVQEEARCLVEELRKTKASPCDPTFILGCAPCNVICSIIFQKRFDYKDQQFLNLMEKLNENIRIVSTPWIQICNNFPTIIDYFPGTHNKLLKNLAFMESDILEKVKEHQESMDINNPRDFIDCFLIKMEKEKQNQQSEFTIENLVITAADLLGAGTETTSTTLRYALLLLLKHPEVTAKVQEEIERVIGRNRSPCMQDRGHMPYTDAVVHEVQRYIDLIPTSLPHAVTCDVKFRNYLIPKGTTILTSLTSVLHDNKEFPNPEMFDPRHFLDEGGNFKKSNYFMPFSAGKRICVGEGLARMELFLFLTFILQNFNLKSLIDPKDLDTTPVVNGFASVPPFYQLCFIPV
Sequence of CYP2C9 (P11712 whole entry): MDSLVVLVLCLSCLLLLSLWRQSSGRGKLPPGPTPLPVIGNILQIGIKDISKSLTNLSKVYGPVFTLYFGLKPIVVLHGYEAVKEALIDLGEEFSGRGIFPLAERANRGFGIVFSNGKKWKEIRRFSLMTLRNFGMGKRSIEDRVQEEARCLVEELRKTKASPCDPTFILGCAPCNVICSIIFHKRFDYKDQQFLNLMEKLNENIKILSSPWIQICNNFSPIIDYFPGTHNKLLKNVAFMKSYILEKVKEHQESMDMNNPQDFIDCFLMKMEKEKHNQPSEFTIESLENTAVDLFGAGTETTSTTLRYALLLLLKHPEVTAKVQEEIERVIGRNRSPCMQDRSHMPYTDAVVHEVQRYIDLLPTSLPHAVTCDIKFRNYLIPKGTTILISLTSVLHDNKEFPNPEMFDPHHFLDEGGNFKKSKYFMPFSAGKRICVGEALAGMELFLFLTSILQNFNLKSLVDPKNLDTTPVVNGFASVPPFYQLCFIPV

Structure (SMILES)	IC50 (CDK12/CyclinK) [µM]	GI50 (SK-Br3 cells; [4]) [µM]	Liver microsomal metabolic stability (% remaining amount) Dog [2] [%]	Liver microsomal metabolic stability (% remaining amount) Human [2] [%]	Liver microsomal metabolic stability (% remaining amount) Mouse [2] [%]	activity at 10 µM (CYP1A2) [%]	activity at 10 µM (CYP2C19) [%]	activity at 10 µM (CYP2C9) [%]	activity at 10 µM (CYP2D6) [%]	activity at 10 µM (CYP3A4) [%]	GI50 (HCC1954 cells; 72 hours, read-out: HCC1954 (GI50/μM)) [µM]	GI50 (HCC1954 cells; read-out: HCC1954 GI50) [µM]	GI50 (SK-Br3 cells; read-out: SK-Br3 GI50) [µM]	mouse body weight [1]	Pol II CTD (Ser2) phosphorylation [3]	Pol II CTD (Ser2) phosphorylation ([3]; listed as Compound 54)	cyclinK degradation (cyclinK)	cyclinK degradation (cyclinK; listed as Compound 54)	expression of IRS1 and WNT1 (IRS1 and WNT1)	expression of IRS1 and WNT1 (IRS1 and WNT1; listed as Compound 54)
CCc1cnn2c(NCc3ccc[n+]([O-])c3)cc(N3CCCC[C@H]3CCO)nc12 [Dinaciclib, reference compound]												0.012	0.012	toxicity with a decrease in body weight in mice						
CCn1cnc2c(NCc3ccc(-c4ccnc(C)c4)nc3)nc(-c3ccc(N)nc3)nc21 [Example 49, 2-(6-aminopyridin-3-yl)-9-ethyl-N-((2′-methyl-[2,4′-bipyridin]-5-yl)methyl)-9H-purin-6-amine]	0.012	0.133	45.1	32.2	35.3	59.3	76.8	73	89.6	38.9										
CCn1cnc2c(NCc3ccc(-c4ccccn4)nc3)nc(-c3cnc(N)nc3)nc21 [Example 54, N-([2,2′-bipyridin]-5-ylmethyl)-2-(2-aminopyrimidin-5-yl)-9-ethyl-9H-purin-6-amine]	0.077		67.6	100	85.0	87.6	72.6	81.6	92.1	92.8					inhibited Pol II CTD (Ser2) phosphorylation	strong dose-dependent suppression of Pol II phosphorylation	induced cyclinK degradation	cyclinK levels were greatly suppressed in a dose-dependent manner	inhibited the expression of IRS1 and WNT1	strongly suppressed

Now from value to compound, other results behind:

IC50 (CDK12/CyclinK) [µM]	GI50 (SK-Br3 cells; [4]) [µM]	Liver microsomal metabolic stability (% remaining amount) Dog [2] [%]	Liver microsomal metabolic stability (% remaining amount) Human [2] [%]	Liver microsomal metabolic stability (% remaining amount) Mouse [2] [%]	activity at 10 µM (CYP1A2) [%]	activity at 10 µM (CYP2C19) [%]	activity at 10 µM (CYP2C9) [%]	activity at 10 µM (CYP2D6) [%]	activity at 10 µM (CYP3A4) [%]	GI50 (HCC1954 cells; 72 hours, read-out: HCC1954 (GI50/μM)) [µM]	Structure (SMILES)	GI50 (HCC1954 cells; read-out: HCC1954 GI50) [µM]	GI50 (SK-Br3 cells; read-out: SK-Br3 GI50) [µM]	mouse body weight [1]	Pol II CTD (Ser2) phosphorylation [3]	Pol II CTD (Ser2) phosphorylation ([3]; listed as Compound 54)	cyclinK degradation (cyclinK)	cyclinK degradation (cyclinK; listed as Compound 54)	expression of IRS1 and WNT1 (IRS1 and WNT1)	expression of IRS1 and WNT1 (IRS1 and WNT1; listed as Compound 54)
0.019		53.6	40.6	45.0	74.9	75.4	82.9	85.7	72.4		CCn1cnc2c(NCc3ccc(-c4ccnc(C)c4)nc3)nc(-c3cnc(N)nc3)nc21 [Example 50, 2-(2-aminopyrimidin-5-yl)-9-ethyl-N-((2′-methyl-[2,4′-bipyridin]-5-yl)methyl)-9H-purin-6-amine]									
0.056	0.192	79.5	27.3	34.0	68.6	73.9	67.5	88.8	31.8	0.156	CCn1cnc2c(NCc3ccc(-c4ccnc(C)c4)nc3)nc(-c3cncnc3)nc21 [Example 51, 9-ethyl-N-((2′-methyl-[2,4′-bipyridin]-5-yl)methyl)-2-(pyrimidin-5-yl)-9H-purin-6-amine]									
